Assays:
Format in all cases: cell-based
[1] = molecular target: T1, GluN1-4a/GluN2D Met763Lys/Lys766Arg NMDARs (Rattus norvegicus, UniProt Q62645, K766R/M763K); experiment: TEVC electrophysiology on oocytes expressing GluN1-4a/GluN2D Met763Lys/Lys766Arg; conditions: Ki mutant relative to Ki GluN2D (WT)
T1 construct: expressed in transfected cells; host or cells: Xenopus laevis oocytes injected with cRNA
Description: (§1) To test the validity of the structural observation for the critical involvement of the methionine/lysine residue combination (GluN2D-Met763/Lys766, and GluN2A-4m-Met738/Lys741) in preferential binding of UBP791 to GluN2D over GluN2A, we conducted site-directed mutagenesis and assessed inhibition potencies of the mutant channels by TEVC. Specifically, we converted the GluN2D residues to the equivalent ones in the GluN2A subunit and measured macroscopic currents of the GluN1-4a/GluN2D mutant NMDARs.
(§2) Plasmids (pSP or pCI_NEO) harboring rat GluN1 or GluN2 full-length subunits were linearized by restriction digestion and transcribed according to the manufacturer’s instructions (mMESSAGE mMachine SP6 or T7 kit, ThermoFisher Scientific). Recombinant rat GluN1-4a and GluN2 were expressed by co-injecting cRNA at a 1:2 (w/w) ratio into defolliculated X. laevis oocytes (amounts varied from 0.05–25 ng per oocyte). Two-electrode voltage-clamp recordings were performed 1–3 days after injection using agarose-tipped microelectrodes (0.4–1.2 MΩ) filled with 3 M KCl at a holding potential of −60 mV. The bath solution contained 5 mM HEPES, 100 mM NaCl, 0.3 mM BaCl2, 10 mM Tricine, at pH 7.4 (adjusted with KOH). […] For the statistical evaluation, we implemented pairwise F-tests to test variances, and then performed the Student t test with equal or unequal variances as determined previously, and accounted for multiple testing with the Bonferroni correction.

[2] = molecular target: T2, GluN1-4a/GluN2D Met763Lys/Lys766Arg NMDARs (Rattus norvegicus, UniProt P35439+Q62645, K766R/M763K); experiment: as above
T2 construct: expressed in transfected cells; host or cells: Xenopus laevis oocytes injected with cRNA
T2 sequence (Q62645 28-1323 M763K/K766R, other chains not shown): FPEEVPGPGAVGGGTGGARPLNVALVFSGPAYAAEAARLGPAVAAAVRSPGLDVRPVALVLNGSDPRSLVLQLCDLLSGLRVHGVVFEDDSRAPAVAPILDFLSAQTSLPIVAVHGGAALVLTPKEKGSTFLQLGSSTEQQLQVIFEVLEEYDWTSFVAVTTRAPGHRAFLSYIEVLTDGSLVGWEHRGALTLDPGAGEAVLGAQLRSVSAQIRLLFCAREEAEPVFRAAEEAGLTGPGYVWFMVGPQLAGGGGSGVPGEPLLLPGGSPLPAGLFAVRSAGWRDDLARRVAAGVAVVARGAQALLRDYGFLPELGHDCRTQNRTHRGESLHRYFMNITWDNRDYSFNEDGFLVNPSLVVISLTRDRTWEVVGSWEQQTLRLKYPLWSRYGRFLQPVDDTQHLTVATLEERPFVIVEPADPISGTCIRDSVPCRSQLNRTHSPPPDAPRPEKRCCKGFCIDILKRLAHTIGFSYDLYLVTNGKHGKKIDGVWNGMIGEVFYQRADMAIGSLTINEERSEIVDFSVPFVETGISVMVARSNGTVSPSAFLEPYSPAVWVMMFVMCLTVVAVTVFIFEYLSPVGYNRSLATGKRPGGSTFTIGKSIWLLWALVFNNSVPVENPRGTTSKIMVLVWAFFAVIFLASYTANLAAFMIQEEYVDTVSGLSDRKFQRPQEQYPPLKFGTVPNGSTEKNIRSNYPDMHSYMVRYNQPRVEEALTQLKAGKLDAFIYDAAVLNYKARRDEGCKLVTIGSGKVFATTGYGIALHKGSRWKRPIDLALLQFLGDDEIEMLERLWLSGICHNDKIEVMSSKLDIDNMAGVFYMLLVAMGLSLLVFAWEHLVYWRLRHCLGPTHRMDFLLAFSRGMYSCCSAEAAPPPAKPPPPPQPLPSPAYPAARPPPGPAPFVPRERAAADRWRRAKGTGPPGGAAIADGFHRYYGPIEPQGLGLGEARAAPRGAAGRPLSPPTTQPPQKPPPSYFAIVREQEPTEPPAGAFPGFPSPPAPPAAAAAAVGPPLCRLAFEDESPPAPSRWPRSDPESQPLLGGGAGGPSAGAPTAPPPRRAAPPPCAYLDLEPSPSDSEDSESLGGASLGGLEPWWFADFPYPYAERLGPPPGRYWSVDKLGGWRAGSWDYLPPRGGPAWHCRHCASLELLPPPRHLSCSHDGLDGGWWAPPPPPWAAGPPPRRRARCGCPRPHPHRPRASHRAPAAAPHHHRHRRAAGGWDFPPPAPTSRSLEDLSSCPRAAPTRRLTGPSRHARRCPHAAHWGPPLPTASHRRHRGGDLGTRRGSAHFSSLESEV
Description: as §1, §2

[3] = molecular target: T3, GluN1-4a/GluN2D Lys766Arg NMDARs (Rattus norvegicus, UniProt P35439+Q62645, K766R); experiment: TEVC electrophysiology on oocytes expressing GluN1-4a/GluN2D Lys766Arg
T3 construct: expressed in transfected cells; host or cells: Xenopus laevis oocytes injected with cRNA
T3 sequence (Q62645 28-1323 K766R, other chains not shown): as the sequence (Q62645 28-1323 M763K/K766R, other chains not shown) above, with K736M counted along it
Description: as §1, §2

[4] = molecular target: T4, GluN1-4a/GluN2D Met763Lys NMDARs (Rattus norvegicus, UniProt P35439+Q62645, M763K); experiment: TEVC electrophysiology on oocytes expressing GluN1-4a/GluN2D Met763Lys
T4 construct: expressed in transfected cells; host or cells: Xenopus laevis oocytes injected with cRNA
T4 sequence (Q62645 28-1323 M763K, other chains not shown): as the sequence (Q62645 28-1323 M763K/K766R, other chains not shown) above, with R739K counted along it
Description: as §1, §2

T1 sequence (Q62645 28-1323 M763K/K766R, other chains not shown): as the sequence (Q62645 28-1323 M763K/K766R, other chains not shown) above

SMILES: O=C(O)CCc1ccc2c(ccc3cc(C(=O)N4CCN[C@@H](C(=O)O)[C@H]4C(=O)O)ccc32)c1 (relative stereo) [UBP791, (2S*,3R*)-1-(7-(2-carboxyethyl)phenanthrene-2-carbonyl)piperazine-2,3-dicarboxylic acid]
- fold difference of Ki vs. 2D (WT) (2D-M763K/K766R) [1]: 13 fold
- IC50 [2]: 7240 ± 440 nM
- Ki [2]: 1150 ± 50 nM
- IC50 [3]: 1450 ± 80 nM
- Ki [3]: 170 ± 30 nM
- IC50 [4]: 1900 ± 60 nM
- Ki [4]: 410 ± 70 nM

Reference: publication PMC6976569, “Structural basis of subtype-selective competitive antagonism for GluN2C/2D-containing NMDA receptors” (Nature Communications, 2020)
